Measurements taken from patent US20220372014A1, “NEUROPROTECTIVE COMPOUNDS AND METHODS OF USE THEREOF” (The Johns Hopkins University, priority 2019, published 2022).

Assays:
[1] = target: T1, MIF (Homo sapiens, UniProt P14174); assay: Nuclease assay of Example 3 (MIF inhibitory activity, Table 4); format: biochemical; design: (%) inhibition of MIF nuclease activity: concentration or dose not given beside the values; conditions: for (%) inhibition of MIF nuclease activity: nuclease assay of Example 3
T1 sequence (P14174 1-115): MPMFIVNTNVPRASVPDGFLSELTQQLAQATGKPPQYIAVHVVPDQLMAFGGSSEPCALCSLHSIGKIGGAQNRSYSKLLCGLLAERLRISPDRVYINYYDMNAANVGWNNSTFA
Procedure: A rapafucin library was synthesized as described in WO2017/136708 and Guo et al. (2018) Nat. Chem. 11:254-63. The hybrid macrocyclic library consisted of 45,000 compounds in pools of 15 individual compounds. The library compounds were screened for MIF inhibitory activity using a nuclease assay as detailed in FIG. 1 and below.
Nuclease assay: Human genomic DNA (200 ng/reaction, Promega), pcDNA (200 ng/reaction) or PS^30 and its related and non-related substrates (1 μM) was incubated with wild type MIF or its variants at a final concentration of 0.25-8 μM as indicated in 10 mM Tris-HCl buffer (pH 7.0) containing 10 mM MgCl2 and 1 mM DTT or specific buffer as indicated, for 1 h (with pcDNA and small DNA substrates) or 4 h (with human genomic DNA) at 37° C. The reaction was terminated with loading buffer containing 10 mM EDTA and incubation on ice. The human genomic DNA samples were immediately separated on a 1.2% pulse field certified agarose in 0.5×TBE buffer with initial switch time of 1.5 s and a final switch time of 3.5 s for 12 h at 6 V/cm. pcDNA samples were determined by 1% agarose gel. Small DNA substrates were separated on 15% or 25% TBE-urea polyacrylamide (PAGE) gel or 20% TBE PAGE gel. Then gel was stained with 0.5 μg/ml Ethidium Bromide (EtBr) followed by electrophoretic transfer to nylon membrane. Then, Biotin-labeled DNA is further detected by chemiluminescence using Chemiluminescent Nucleic Acid Detection Module (Thermo Scientific).
Structure-activity relationship (SAR) analysis was then conducted on the compounds identified as having MIF inhibitory activity. Compounds having the structure of Formula (I) were then synthesized as shown in Example 1 and tested for MIF inhibitory activity using the nuclease assay described herein and neuronal protection via a cell death assay as detailed below.

[2] = tested on: HeLa cells or neuronal cells; assay: Cell death assay of Example 3 (MNNG, alamarBlue; protection against parthanatos, Table 4); format: cell-based; conditions: 1 μM test compound; for (%) inhibition of cell death: MNNG-induced cell death, alamarBlue
Procedure: Cell death assay: 200 μl of cells (HeLa cells or neuronal cells) culture (1×10^4 cells/well) were plated into the wells of a sterile 96-well cell culture plate. The cells were incubated for 18 hours at 37° C. The medium was removed and changed with 100 μl/well of 1 μM test compound. Incubate for 1 hours at 37° C. Ten μl of 500 μM MNNG (N-Methyl-N′-nitro-N-nitrosoguanidine) was added to each well. The medium was aspirated well and incubated for 15 min at 37° C. The cells were washed with the fresh medium. The medium was changed with 1 μM of test compound and incubated for 18 hours at 37° C. 10 μl/well of alamarBlue reagent was added directly to the well and incubated for 1 to 4 hours at 37° C. Fluorescence was measured using a fluorescence excitation wavelength of 560 nm and emission at 590 nm. The percentage of cell death was determined as the ratio of live to dead cells compared with the percentage of cell death in control wells to account for cell death attributed to mechanical stimulation of the cultures.

Row | (%) inhibition of MIF nuclease activity [1] | MIF nuclease activity [1] | Structure (SMILES) | (%) inhibition of cell death [2] | protection against parthanatos (cell death) [2]
1 | 15.3% | – | COc1ccc(CC[C@H]2OC(=O)[C@@H]3CCCCN3C(=O)C(=O)C(C)(C)COC(=O)C=CCCN(C)C(=O)[C@H](C)NC(=O)[C@H](COC(C)(C)C)N(C)C(=O)[C@@H](CC(C)C)NC(=O)CN(C)C(=O)COc3cccc2c3)cc1OC [compound 2] | 41.1% | –
2 | 8.7% | – | COc1cc(CC[C@H]2OC(=O)[C@@H]3CCCCN3C(=O)C(=O)C(C)(C)COC(=O)C=CCCN(C)C(=O)[C@@H]3CCCN3C(=O)[C@H](COC(C)(C)C)N(C)C(=O)C(c3ccccc3)NC(=O)[C@H](C)N(C)C(=O)COc3cccc2c3)cc(OC)c1OC (stereo partly drawn) [compound 115] | 47.9% | –
3 | 59.9% | – | CCC[C@@H]1NC(=O)[C@H](COC(C)(C)C)N(C)C(=O)[C@@H](Cc2ccc3ccccc3c2)NC(=O)[C@H](C)N(C)C(=O)COc2cccc(c2)[C@@H](CCc2ccc(OC)c(OC)c2)OC(=O)[C@@H]2CCCCN2C(=O)C(=O)C(C)(C)COC(=O)C=CCCN(C)C1=O [compound 19] | 62.4% | –
4 | 10.7% | – | COCC[C@@H]1NC(=O)[C@H](COC(C)(C)C)N(C)C(=O)[C@@H](CC(C)C)NC(=O)CN(C)C(=O)COc2cccc(c2)[C@@H](CCc2ccc(OC)c(OC)c2)OC(=O)[C@@H]2CCCCN2C(=O)C(=O)C(C)(C)COC(=O)C=CCCN(C)C1=O [compound 5] | 41.7% | –
5 | 6.8% | – | COc1ccc(CC[C@H]2OC(=O)[C@@H]3CCCCN3C(=O)C(=O)C(C)(C)COC(=O)C=CCCN(C)C(=O)[C@@H]3CCCN3C(=O)[C@H](COC(C)(C)C)N(C)C(=O)C(c3ccccc3)NC(=O)[C@H](C)N(C)C(=O)COc3cccc2c3)cc1 (stereo partly drawn) [compound 151] | 45.7% | –
6 | 10.7% | – | COc1ccc(CC[C@H]2OC(=O)[C@@H]3CCCCN3C(=O)C(=O)C(C)(C)COC(=O)C=CCCN(C)C(=O)[C@H](Cc3ccc(F)cc3)NC(=O)[C@H](C(C)C)N(C)C(=O)[C@@H](Cc3ccccc3)NC(=O)[C@H](CC(C)C)N(C)C(=O)CCC(=O)Nc3cccc2c3)cc1OC [compound 85] | 49.4% | –
7 | 2.4% | do not inhibit MIF nuclease activity | COc1ccc(CC[C@H]2OC(=O)[C@@H]3CCCCN3C(=O)C(=O)C(C)(C)COC(=O)C=CCCN(C)C(=O)[C@@H]3CCCN3C(=O)[C@H](COC(C)(C)C)N(C)C(=O)C(c3ccccc3)NC(=O)[C@H](C)N(C)C(=O)COc3cccc2c3F)cc1OC (stereo partly drawn) [compound 125] | 63.4% | protect against parthanatos
8 | 32.7% | – | COc1ccc(CC[C@H]2OC(=O)[C@@H]3CCCCN3C(=O)C(=O)C(C)(C)COC(=O)C=CCCN(C)C(=O)[C@@H]3CCCN3C(=O)[C@H](COCc3ccccc3)N(C)C(=O)C(c3ccccc3)NC(=O)[C@H](C)N(C)C(=O)COc3cccc2c3)cc1OC (stereo partly drawn) [compound 96] | 69.1% | –
9 | – | – | COc1ccc(CC[C@H]2OC(=O)[C@@H]3CCCCN3C(=O)C(=O)C(C)(C)COC(=O)C=CCCN(C)C(=O)[C@@H]3CCCN3C(=O)[C@H](COC(=O)CCC(=O)OCCOCCOCCOCCNC(=O)CCCCC3SC[C@H]4NC(=O)N[C@@H]34)N(C)C(=O)C(c3ccccc3)NC(=O)[C@H](C)N(C)C(=O)COc3cccc2c3)cc1OC (stereo partly drawn) [compound 130] | 48.2% | –

Row | Structure (SMILES) | (%) inhibition of MIF nuclease activity [1] | MIF nuclease activity [1] | (%) inhibition of cell death [2] | protection against parthanatos (cell death) [2]
10 | COc1ccc(CC[C@H]2OC(=O)[C@@H]3CCCCN3C(=O)C(=O)C(C)(C)COC(=O)C=CCCN(C)C(=O)[C@H](C)NC(=O)[C@H](COC(C)(C)C)N(C)C(=O)C(c3ccccc3)NC(=O)CN(C)C(=O)COc3cccc2c3)cc1OC (stereo partly drawn) [compound 32] | 11.2% | – | 54.3% | –
